Reference: patent US20240398785A1, “SMALL MOLECULE DRUGS FOR THE INDUCTION OF TRAINED IMMUNITY” (THE UNIVERSITY OF CHICAGO, priority 2023, published 2024)
Structures can show the parent of a compound that is named as a salt. Where two headings read alike, the source gives them in different places.

Tests used:
[1] = test system: bone marrow-derived macrophages (BMDMs); assay: Chemical inhibition of training (MTA, EGCG, 2DG pre-treatment); format: cell-based, mouse
Method: FIG. 3D is a graph of a glycolysis inhibition assay using 1 mM 2DG and measuring TNF-α concentration following Pam3 challenge in cells trained with 10 μM hydrocortisone after 1 h of pre-treatment with PBS or 2DG (n=15). FIGS. 3E-3I are graphs of TNF-α concentration following Pam3 challenge in cells trained with M 5-Fluoroindole-2-Carboxylic Acid (FIG. 3E), Myricetin (FIG. 3F), Nerol (FIG. 3G), Hydroquinone (FIG. 3H), or Fenoterol hydrobromide (FIG. 3I) after pre-treatment with PBS or glycolysis inhibitor, 2DG (n=15). […] All values are expressed as mean±SEM, and statistics were conducted using 2-way ANOVA with Sidak's multiple comparisons test (significance compared with untrained group). *P<0.05, **P<0.01, ***P<0.001, ****P<0.0001, n.s., not significant.
For inhibition studies, BMDMs received inhibitors at specified concentrations 1 h prior to stimulation with training molecules, and inhibitors were present for the entire 24 h training period. […] To test metabolic pathway involvement, cells were pretreated with 1 mM 2′ deoxy-D-glucose.
Upregulation of glycolysis is commonly implicated as one of the underlying mechanisms in the induction of trained immunity.

[2] = test system: bone marrow-derived macrophages (BMDMs); assay: High-throughput trained immunity screening (TNF-α by HEK-Blue Quanti-Blue assay); details: Mus musculus, BMDM, read-out: Fold Change (TNF-α production increase over untrained control)
Method: High-throughput trained immunity screening: Mature BMDMs were plated at 25,000 cells per well in 45 μL media in 384-well flat-bottomed plates using the Thermo Multidrop Combi liquid handler. Cells were rested overnight at 37° C. and 5% CO2. The following day, training compounds from the Microsource Spectrum Library were added at a volume of 45 nL using the PerkinElmer Janus G3 with Pintools for a final concentration of 1 μM. On day 2, supernatant was removed using the Janus, cells were washed with warm PBS using the Multidrop, and fresh media was added to the cells using the Multidrop. On day 5, cell density was quantified using the IncuCyte imager and software, then cells received media containing 25 ng/mL IFN-7 (BD Biosciences) for 24 hours. On day 6, cells were stimulated with 25 ng/mL Pam3-CSK4 (Invivogen). Supernatant was collected on day 6 and on day 7 following 24 hours of TLR stimulation, and it was stored at −80° C.
To measure TNF-α concentration in the supernatant, a high-throughput Quanti-Blue assay was used. HEK-Blue TNF-α cells (Invivogen) were plated at a density of 25,000 cells per well in 45 μL media (DMEM, 10% HIFBS). 5 μL of supernatant is added to each well using the Janus liquid handler, then the plates were incubated for 24 hours at 37° C. and 5% CO2. The following day, 20 μL of concentrated Quanti-Blue reagent was added to each well using the Combi liquid handler, and the plate was shaken for one minute. Then, the plate incubated at room temperature for 15 minutes before absorbance was measured at 628 nm using the BioTek Synergy NEO 2. All data is represented as a fold change relative to the average of the Pam3 only untrained control (n=20) on each plate.
An additional plate was seeded alongside the screen plates for a manual training assay and ELISA measurement of cytokine secretion to confirm that the BMDMs were behaving as expected. […] On Day 5, each well was imaged using an IncuCyte to quantify cell viability relative to the untrained controls.^20 Furthermore, the cells were checked to see if they maintained a resting phenotype before TLR stimulation by collecting and freezing the supernatant on Day 6 to measure TNF-α concentration after the assay was complete. Trained immunity effects are distinct from innate immune priming, so we checked that the cells maintained a resting phenotype before TLR stimulation by collecting and freezing the supernatant from each of the three screening replicates on Day 6 to measure TNF-α concentration after the assay was complete (FIG. 1F).
For each replicate of the screen, a modified version of the standard 7-day training assay was used.^18 TNF-α concentration was measured using a high throughput Quanti-Blue assay in HEK-Blue TNF-α cells. Concentration is proportional to absorbance measured at 628 nm within the range of the assay. 2,000 small molecules from the MicroSource Spectrum Library were screened.

peritoneal cells = assay: Peritoneal lavage spectral flow cytometry 2 h after LPS challenge; format: in vivo, mouse
Method: FIG. 4A is a schematic drawing showing a method of screening small molecule inducers of trained immunity in vivo. Mice were injected intraperitoneally (i.p.) with small molecules or vehicle control on days 0, 2, and 4. Mice were challenged with 1 μg lipopolysaccharide (LPS) on day 11 and then bled 1 hour (h) later. […] All values are expressed as mean±SEM, and statistics were conducted using 1-way ANOVA or 2-way ANOVA with multiple comparisons (significance compared with untrained group). *P<0.05, **P<0.01, ***P<0.001, ****P<0.0001, n.s., not significant. All values are expressed as mean±SEM, and statistics were conducted using 1-way ANOVA with two-stage linear step-up procedure (significance compared with untrained group). *P<0.05, **P<0.01, ***P<0.001, ****P<0.0001, n.s., not significant.
To determine which cells were involved, mice were given training injections and challenged as previously described. Then, 2 h after challenge, the mice were sacrificed, and peritoneal cells were collected by lavage. The cells were fixed and stained for intracellular TNF-α and IL-6 and surface costimulatory markers, CD40, CD86, and MHCII. Lineage markers were included for innate immune cells, including neutrophils, eosinophils, monocytes, macrophages, and dendritic cells. The stained cells were then analyzed via spectral flow cytometry.
The activation of these cells and changes to co-stimulatory molecules were then investigated.

[3] = test system: bone marrow-derived macrophages (BMDMs); assay: In vitro trained immunity assay (ELISA, TLR agonist challenge); format: cell-based, mouse; details: for IL-6 production following challenge: 100 ng/mL Pam3
Method: FIG. 2H is a graph showing TNF-α concentration from BMDMs trained with PBS or hydrocortisone at a concentration of 10 μM followed by challenge with 100 nanograms per milliliter (ng/mL) lipopolysaccharide (LPS) or Pam3 (n=30). […] FIG. 2I is a graph showing TNF-α or interleukin-6 (IL-6) concentration from BMDMs treated with 10 μM hit compounds one hour (hr) prior to 24 hr stimulation with 100 ng/mL Pam3 (n=6). […] All values are expressed as mean±SEM, and statistics were conducted using 1-way ANOVA with Dunnett's multiple comparisons test (significance compared with untrained group). *P<0.05, **P<0.01, ***P<0.001, ****P<0.0001, n.s., not significant.
TNF-α (FIG. 13D) and IL-6 (FIG. 13E) were measured from BMDM cell culture supernatant 24 h following treatment with small molecules or β-glucan.
In vitro trained immunity assay: Mature BMDMs were plated at 10^5 cells per well in 200 L media in 96-well flat-bottomed plates and rested overnight at 37° C. and 5% CO2. The following day, training molecules were added at specified concentrations and incubated for 24 hours. After training, cells were washed with warm PBS and rested for 3 days in fresh media. On day 5, cells received fresh media containing 25 ng/mL IFN-7 (BD Biosciences) for 24 hours. On day 6, cells were stimulated with 100 ng/mL Pam3CSK4 (Invivogen). Cell supernatant was collected 24 hours after stimulation. Supernatants were measured for IL-6 and TNF-α concentrations using ELISA MAX Deluxe kits (BioLegend) according to manufacturer's instructions.
To select an optimal concentration and agonist pairing, a series of ELISAs were performed to validate the training effects.

[4] = glycolysis inhibitor 2-deoxy-D-glucose 1 mM
[5] = peritoneal lavage, 2 h after challenge

Row | Structure (SMILES) | fold induction at 1 µM [2] | further results
1 | O=C(O)c1cc2cc(F)ccc2[nH]1 [5-Fluoroindole-2-carboxylic acid] | 2.47 | training (TNF-α after Pam3) after 2DG pre-treatment [1]: not susceptible to suppression of training
2 | NC(CO)C(=O)NNCc1ccc(O)c(O)c1O (centres unmarked) [Benserazide hydrochloride] | 1.61 | –
3 | CCCC1O[C@@H]2C[C@H]3[C@@H]4CCC5=CC(=O)C=C[C@]5(C)[C@H]4[C@@H](O)C[C@]3(C)[C@]2(C(=O)CO)O1 (some centres unmarked) [Budesonide] | 2.69 | –
4 | CCC(=O)O[C@]1(C(=O)CCl)[C@@H](C)C[C@H]2[C@@H]3CCC4=CC(=O)C=C[C@]4(C)[C@@]3(F)[C@@H](O)C[C@@]21C [Clobetasol propionate] | 2.07 | –
5 | Oc1ccc(Cl)cc1Cc1cc(Cl)ccc1O [Dichlorophene] | 1.61 | –
6 | CC(Cc1ccc(O)cc1)NCC(O)c1cc(O)cc(O)c1 (centres unmarked) [Fenoterol hydrobromide] | 1.62 | training (TNF-α after Pam3) after 2DG pre-treatment [1, 4]: not susceptible to suppression of training
7 | O=c1[nH]c(=O)n([C@H]2C[C@H](O)[C@@H](CO)O2)cc1F [Floxuridine] | 1.6 | –
8 | CC1(C)O[C@@H]2C[C@H]3[C@@H]4C[C@H](F)C5=CC(=O)C=C[C@]5(C)[C@H]4[C@@H](O)C[C@]3(C)[C@]2(C(=O)CO)O1 [Flunisolide] | 2.49 | training (TNF-α after Pam3) after 2DG pre-treatment [1, 4]: significant inhibition of training; training (TNF-α after Pam3) after EGCG pre-treatment ([1]; histone acetyltransferase inhibitor EGCG 15 μM, 10 μM compound): slightly reduce training though statistical significance was not achieved; training (TNF-α after Pam3) after MTA pre-treatment ([1]; methyltransferase inhibitor MTA 500 μM, 10 μM compound): significant inhibition of training; cell count in the peritoneal lavage (peritoneal cells; 2 h after challenge): increased cell count; CD86 on eosinophils and small peritoneal macrophages (MFI of CD86+ cells) (peritoneal cells; peritoneal lavage): increased amount; MFI of MHCII+ SPMs (peritoneal cells; peritoneal lavage): increased; number of TNF-α+ and IL-6+ eosinophils (peritoneal cells; [5]): significant increases
9 | CC1(C)O[C@@H]2C[C@H]3[C@@H]4C[C@H](F)C5=CC(=O)C=C[C@]5(C)[C@@]4(F)[C@@H](O)C[C@]3(C)[C@]2(C(=O)CO)O1 [Fluocinolone acetonide] | 2.28 | –
10 | CC(=O)OCC(=O)[C@@]12OC(C)(C)O[C@@H]1C[C@H]1[C@@H]3C[C@H](F)C4=CC(=O)C=C[C@]4(C)[C@@]3(F)[C@@H](O)C[C@@]12C [Fluocinonide] | 2.29 | –
11 | CC1(C)O[C@@H]2C[C@H]3[C@@H]4CCC5=CC(=O)CC[C@]5(C)[C@@]4(F)[C@@H](O)C[C@]3(C)[C@]2(C(=O)CCl)O1 [Halcinonide] | 2.7 | –
12 | CC(=O)OCC(=O)[C@@]1(O)CC[C@H]2[C@@H]3CCC4=CC(=O)CC[C@]4(C)[C@H]3[C@@H](O)C[C@@]21C [Hydrocortisone acetate] | 1.68 | –
13 | C[C@]12CCC(=O)C=C1CC[C@@H]1[C@@H]2[C@@H](O)C[C@@]2(C)[C@H]1CC[C@]2(O)C(=O)CO [Hydrocortisone] | 1.78 | IL-6 production following challenge [3]: increased production of IL-6; TNF-α training effect with TLR4 and TLR1/2 agonists ([3]; 10 μM, challenge 100 ng/mL LPS or Pam3, n=30): Training effects were observed; training (TNF-α after Pam3) after 2DG pre-treatment [1, 4]: significant inhibition of training
14 | Oc1ccc(O)cc1 [Hydroquinone] | 1.68 | training (TNF-α after Pam3) after 2DG pre-treatment [1, 4]: not susceptible to suppression of training; cytokine MFIs among TNF-α+ neutrophils and IL-6+ eosinophils (peritoneal cells; [5]): significant increases; number of TNF-α+ and IL-6+ cells (peritoneal cells; [5]): no increase
15 | C=C1CCC2C(CC2(C)C)C(=O)CCC1O (centres unmarked) [Isokobusone] | 1.66 | –
16 | COc1ccc(OC)c(C(O)C(C)N)c1 (centres unmarked) [Methoxamine hydrochloride] | 2.21 | –
17 | O=c1c(O)c(-c2cc(O)c(O)c(O)c2)oc2cc(O)cc(O)c12 [Myricetin] | 2.19 | IL-6 production following challenge [3]: increased production of IL-6; training (TNF-α after Pam3) after 2DG pre-treatment [1, 4]: not susceptible to suppression of training; cell count in the peritoneal lavage (peritoneal cells; 2 h after challenge): increased cell count; number of TNF-α+ and IL-6+ eosinophils (peritoneal cells; [5]): significant increases
18 | CC(=O)N[C@@H](CC(=O)O)C(=O)O [N-Acetylaspartic acid] | 1.6 | –
19 | CC(C)[C@H]1CC[C@H](C(=O)N[C@H](Cc2ccccc2)C(=O)O)CC1 [Nateglinide] | 1.6 | –
20 | CC(C)=CCC/C(C)=C\CO [Nerol] | 1.73 | training (TNF-α after Pam3) after 2DG pre-treatment [1, 4]: not susceptible to suppression of training
21 | NC(=O)N/N=C/c1ccc([N+](=O)[O-])o1 [Nitrofurazone] | 1.69 | –
22 | CN1CCCN=C1COC(=O)C(O)(c1ccccc1)C1CCCCC1 (centres unmarked) [Oxyphencyclimine hydrochloride] | 1.67 | –
23 | C[C@]12C=CC(=O)C=C1CC[C@@H]1[C@@H]2[C@@H](O)C[C@@]2(C)[C@H]1CC[C@]2(O)C(=O)CO [Prednisolone] | 2.06 | –
24 | CCC(C)(C)C(=O)O[C@H]1C[C@@H](C)C=C2C=C[C@H](C)[C@H](CC[C@@H]3C[C@@H](O)CC(=O)O3)[C@H]21 [Simvastatin] | 1.61 | –
25 | N#Cc1c(Cl)c(Cl)c(Cl)c(C#N)c1Cl [Tetrachloroisophthalonitrile] | 1.61 | –
26 | CC1(C)C(C(Cl)Cl)C2(Cl)C(Cl)C(Cl)C1(Cl)C2(Cl)Cl (centres unmarked) [Toxaphene] | 1.63 | –
27 | CC(=O)OCC(=O)[C@@]1(O)[C@H](OC(C)=O)C[C@H]2[C@@H]3CCC4=CC(=O)C=C[C@]4(C)[C@@]3(F)[C@@H](O)C[C@@]21C [Triamcinolone diacetate] | 1.73 | –
28 | C[C@]12C=CC(=O)C=C1CC[C@H]1[C@@H]3C[C@@H](O)[C@](O)(C(=O)CO)[C@@]3(C)C[C@H](O)[C@@]12F [Triamcinolone] | 1.76 | –
29 | Cc1cc2cc3c(C)cc(=O)oc3c(C)c2o1 [Trioxsalen] | 1.66 | –
30 | Cc1cc(CC(=O)O)n(C)c1C(=O)c1ccc(Cl)cc1 [Zomepirac Sodium] | 1.7 | –
